# Patent US20260083698A1, “Synergistic Stimulation of Mucociliary Clearance to Treat Mucus Obstruction in Cystic Fibrosis and Other Muco-Obstructive Disorders” (The Board of Trustees of the Leland Stanford Junior …, priority 2022, published 2026)
# Experiments:
# [1] = test system: WT ferret tracheal glands; test: Optical measurement of glandular mucus secretion rate, WT ferret
# From the text: (§1) Synergistic glandular mucus secretion in WT pigs, WT ferrets, and CF ferrets. Synergistic increases in MCCV rely partly on increased mucus secretion from submucosal glands. This hypothesis arises from evidence that combinations of [Ca^2+]i-elevating and [cAMP]i-elevating agonists produce synergistically elevated rates of mucus from submucosal glands of humans (22), pigs (24), and ferrets (21). However, in those experiments different specific concentrations of agonists were used. To determine if the same protocols used here produced synergistic increases in secretion from submucosal glands, mucus secretion rates of individual tracheal glands in WT pigs and ferrets and in CF ferrets were measured via time-lapse optical imaging (28) while stimulating them with the same concentrations of agonists and durations of exposure used for MCCV studies. All secretion rates are reported as nanoliters/min/gland. WT Ferrets gave similar results (FIG. 3D-F). […] Data for individual WT control ferrets is shown in FIG. 3E for forskolin first and in FIG. 3F for carbachol first. Optical measurement of glandular mucus secretion rate. Details are in the previous report (28). […] Stored images were analyzed by direct measurement or with ImageJ software (V. 1.50i, https://imagej.nih.gov/ij/, NIH, MD/USA).
# [2] = test system: CF ferret (CFTRKO/KO) tracheal glands; test: Optical measurement of glandular mucus secretion rate, CF ferret; settings: 10 mM forskolin, 0.3 mM carbachol, one ferret per order of addition
# From the text: as §1, with “nanoliters/min/gland. […] Only two CF ferrets were able to be tested (FIG. 3G-I). […] Unstimulated secretion rates were zero, as in” for “nanoliters/min/gland.”, “ferrets.” for “Ferrets gave similar results (FIG. 3D-F).”, “The averaged secretion rate across both ferrets to the combined agonists was 1.27±0.15,which is 2.8 times the arithmetic sum of the two agonists used alone, and about half of the response of” for “Data for individual”, “WT” for “WT control”, “ferrets” for “ferrets is shown in FIG. 3E for forskolin first and in FIG. 3F for carbachol first. Optical measurement”, “2.46±0.39 (16). Airway tissue procurement.” for “glandular mucus secretion rate. Details are in the previous report (28).”
# WT piglet tracheas = test: Mucociliary clearance velocity (MCCV) in ex vivo WT piglet tracheas; design: species or system pig; settings: for Averaged MCCV: 10 μM forskolin, 0.3 μM carbachol, last 20 min of single agonist period, last 50 min of synergy period
# Method: MCCV in tracheas was measured from 2 to 5 days old WT piglets (see “Methods” section for details). […] The 8 piglet tracheas were divided into two groups and tested 4 by applying forskolin first and 4 by applying carbachol first, followed by the combined agonists.
# These experiments used forskolin to elevate cAMP.
# Pig tissues. Newborn WT piglet tracheas (2-5 days old) were directly obtained at the swine facility of UC Davis or from the laboratory of David Stoltz, University of Iowa, via overnight priority express. Postmortem (<1 h) tracheas from young adult Yorkshire pigs (30-50 kg) and 5-12 months old M. putorius ferrets were from animal facilities at Stanford and Gilroy/CA. All methods using animal tracheae were carried out in accordance with relevant guidelines and regulations of Stanford University and animal protocols were approved (Stanford IACUC protocol#: 10,048). Piglet tracheas were shipped in DMEM cell culture medium, other animal tissues were transported to the laboratory in cold PhysioSol™ solution (Hospira, IL/USA) and then transferred to icecold Krebs Ringer bicarbonate (KRB) buffer gassed with 95% O2 and 5% CO2 and kept at 4° C. until use. The KRB buffer contained (in mM): 115 NaCl, 25 NaHCO3, 2.4 K2HPO4, 0.4 KH2PO4, 1.2 MgCl2, 1.2 CaCl2, 10 glucose, and 1.0 μM indomethacin, adjusted to pH 7.2 and ˜290 mOsm at room temperature.
# MCCV measurement. Details are in the previous reports (16,59,60). Briefly, each whole length ferret or piglet trachea, or a CF tracheal trim, was cut open along the mid-dorsal line and mounted mucosal side up onto a Sylgard elastomer platform. […] The prepared trachea was placed into a sealed, humidified chamber bubbled continuously with gas (95%/5%-O2/CO2) with the serosal surface bathed with KRB buffer±drugs. […] Then excess apical solution was drained, and tissue was incubated for an additional 10 min before starting baseline measurements of MCCV. Drugs were added by bath replacement with pre-warmed bath+drug(s). Summary MCCV data are reported as a single number and based on the averaged MCCV during the last 20 min of the treatment period unless stated otherwise.
# MCCV (all values are in mm/min) was then measured for 90-120 min and plotted as MCCV vs time and agonist(s) in FIG. 8.
# It was hypothesized that the synergistic MCC induced by β-adrenergic and cholinergic agonists involved ENaC inhibition.
SMILES,gland mucus secretion rate [1] [nanoliters/min/gland],"average gland mucus secretion rate, single ferret [2] [nanoliters/min/gland]",Averaged MCCV (WT piglet tracheas; WT piglet tracheas) [mm/min],"effect on MCCV (WT piglet tracheas; WT piglet tracheas, carbachol or forskolin alone)","MCCV (WT piglet tracheas; pig tracheas, 10 μM formoterol in place of forskolin, carbachol) [mm/min]"
C[N+](C)(C)CCOC(N)=O [carbachol],0.94±0.28,0.45±0.16,1.12±0.82,only small increases,1.3±0.8
C=C[C@@]1(C)CC(=O)[C@]2(O)[C@@]3(C)[C@@H](O)CCC(C)(C)[C@@H]3[C@H](O)[C@H](OC(C)=O)[C@@]2(C)O1 [forskolin],0.26±0.07,0.01,2.46±0.68,–,–
